# Test results published in patent US9156824B2, “CDC7 inhibitors” (Eli Lilly and Company, priority 2013, dated 2015).
# Read-outs that look alike come from different tables or passages of the source.
# What was measured:
# [1] = tested on: phosphorylated MCM2 at Serine 53 (pMCM2-S53) in H1299 cells; assay: Acumen imaging assay for detection of phosphorylated MCM2 in H1299 cells; format: cell-based; details: 4 hours treatment, read-out: IC50, inhibition of pMCM2-S53
# Procedure: The Acumen® eX3 is used to determine the effect of compounds on the formation of endogenous phosphorylated MCM2 at Serine 53 (pMCM2-S53). Phosphorylation of MCM2 by CDC7 is determined using specific anti-pMCM2-S53 antibody and quantified with fluorescent tagged secondary antibodies by Acumen® eX3 to monitor CDC7 activity in cells. Phosphorylation of MCM2 at Serine 53 is known to be correlated to CDC7 inhibition.
# H1299 cells (ATCC #CRL-5803) are maintained in RPMI-1640 (Hyclone SH30809.01) growth medium supplemented with 10% FBS. Cells are harvested using standard cell culture procedures and then counted using Vi-Cell XR Cell Viability Analyzer (Beckman Counter). 3000-6000 H1299 cells in 100 μL of growth medium are plated into each well of Biocoat Poly-D-Lysine 96-well black/clear plate with flat bottom BioCoat™ Multiwell (Becton Dickinson) cell culture plates 356640 and incubated overnight at 37° C., 5% CO2.
# Cells are treated with the test compound (50 μL/well) diluted in medium containing 0.6% DMSO and incubated for 4 hours at 37° C. To each well is added 7.4% formaldehyde (150 μL) diluted with PBS from 37% formaldehyde stock and the plates are incubated at room temperature for 30 minutes. Formaldehyde is removed and cold methanol (100 μL) is added. The plates are incubated for 20 minutes at 4° C. to permeabilize the cells. Plates are washed 3× with 100 μL/well of PBS. […] The plates are sealed with black seal and are read on the Acumen® eX3 (TTP LABTECH) using optical filter 500-530 nanometer and 575-640 nanometer for Alexa Fluor 488 and propidium iodide, respectively. The number of pMCM2-S53 positive cells is normalized to total cells for each well and are calculated as percent inhibition relative to on-plate controls. […]
# [2] = target: T1, CDC7/DBF4 (Homo sapiens, UniProt O00311); assay: CDC7/DBF4 in vitro enzyme assay (Transcreener Kinase ADP-FP); format: biochemical; details: ATP 5 μM, MCM2 400 nM, 60 minutes, read-out: IC50 against CDC7/DBF4 kinase
# T1 construct: host or cells: insect cells
# Procedure: The Transcreener™ Kinase ADP-FP assay is used to determine compound IC50 values against CDC7/DBF4 kinase. The Kinase ADP-FP assay assesses the activity of CDC7/DBF4 in the presence of compound inhibitors by measuring the concentration of ADP formed in a kinase reaction. The kinase reaction is performed using a 25 microliter reaction volume in 96 well assay plate. For the ADP-FP assay, the reagents are added to obtain the final reaction conditions of HEPES (25 mM) pH 7.5, 0.03% Triton® X-100, magnesium chloride (10 mM), DTT (1 mM), MCM2 (400 nM) (Amino Acid 1-209, a physiological substrate of CDC7/DBF4), spermine (4 mM), CDC7/DBF4 (2,640 ng/mL) (recombinant human CDC7/DBF4 expressed in insect cells), 4% dimethyl sulfoxide and serial dilutions of compound (diluted 1:3 from 20,000 nM to 1 nM). Enzyme and substrate is added to compound followed by ATP to 5 μM to start the reaction. The plates are incubated at room temperature for 60 minutes.
# For the ADP-FP format add 25 microliters of a quench detection reagent containing HEPES (52 mM) pH 7.5, EDTA (20 mM), sodium chloride (0.4 M), polyoxyethyleneglycol dodecyl ether (0.02%) (BRIJ-35™), anti-ADP antibody (10 μg/mL), and ADP (4 nM) Transcreener® ADP Alexa Fluor® 633 tracer to quench the reaction. The plates are incubated for 1 hour, and then read in a Wallac EnVision™ 2104 Multilabel Reader (PerkinElmer) in Fluorescence Polarization mode using polarizing filters of Ex620nm and Em688nm wavelength. Millipolarization (mP) raw data is converted to micromolar ADP using a prepared ADP/ATP standard curve starting at 5 μM ADP 1:1 serial dilution in reaction buffer to 0.0025 μM ADP. The IC50 value for each compound is derived using percent inhibition data calculated from the μM ADP reaction data relative to on-plate controls (DMSO versus 100 mM EDTA inhibited enzyme controls). The percent inhibition and ten-point compound concentration data is then fitted to a four-parameter logistic equation.
# [3] = tested on: pMCM2-S40/41 in Colo-205 xenograft tumors; assay: CDC7 in vivo target inhibition (IVTI) on pMCM2-S40/41 with Colo-205 xenograft tumor model; design: species or system mice; details: 4 hours following an oral dose
# Procedure: Human colo-205 colorectal cancer cells (ATCC#CCL-222) are maintained in RPMI 1640 medium containing 10% FBS. Log phase growing cells are harvested, washed, and resuspended in a 1:1 mixture of serum free medium and Matrigel™ (Becton Dickinson). They are injected subcutaneously at 5×10^6 cells/animal/site in the rear flank as subcutaneous tumor xenograft models in balb/c (nu/nu) female mice (6-8 weeks with body weight of 20 to 25 gram/mouse). Animals are randomized at the mean tumor volume of 150 to 250 mm^3 mice, (v=1×w×0.536 where 1=larger of measured diameter and w=smaller of perpendicular diameter). Compound is administered by P.O. in a standard 1% HEC w/v, P80 0.25% v/v, Antifoam 1510-US 0.05% v/v formulation. […] Protein concentration from tumor lysates is determined by BCA assay (Thermo Scientific) and 5 to 10 μg of protein is separated by standard SDS-PAGE (BioRad Criterion™ gel) or (Invitrogen ePage™ gel). […] Levels of pMCM2-S40/41 are determined and quantified by either Licor or FUJI imagers and normalized to the total GAPDH level. The percent change inhibition of pMCM2-S40/41 band intensity is calculated using the average intensity of vehicle treated control tumors normalized to the GAPDH as the maximum signal. […]
# [4] = tested on: panel of 114 cancer cell lines of colorectal, breast, lung, and blood (leukemia) origin; assay: In vitro antiproliferative assay (cell number counting); format: cell-based; details: for Number of Cell Lines that Die Rapidly: within 2 doubling times
# Procedure: In vitro anti-proliferative activity of Example 2 is determined by cell number counting assays against a panel of 114 cancer cell lines of colorectal, breast, lung, and blood (leukemia) origin obtained from ATCC, HSRRB, RIKEN or ECACC. The cells are cultured and maintained in media per supplier's instructions. Cell doubling time of each cell line is determined and all cell lines are free of mycoplasma contamination. Cells are cultured overnight in 96-well plates before compound addition for anti-proliferative activity assays. Optimal cell seeding density is carefully evaluated for each cell lines by seeding the cell culture with 4 different cell densities in 100 μL media and taking into consideration of their doubling time and cell sizes. The seeding density that gave about 90% confluence at end of two doubling times is then selected for compound testing. Staurosporine is used with 1:3 dilution as a reference. Example 2 is prepared as a 4 mM DMSO stock and diluted in culture media in a 1:2 ratio. 50 μL of the media containing the compound is added to each well of the overnight 96-well culture to produce the desired final concentrations of 20, 10, 5, 2.5, 1.25, 0.625, 0.312, 0.156, 0.078 μM and DMSO control. Each treatment concentration has duplicate wells. The cells are further cultured for two doubling times in the presence of the compound. At end of treatment time, cells are first examined under a microscope for morphological changes, such as cell death or apparent cell size increases. Cells in each duplicate well are collected separately. Adherent cells are harvested by tripsinization first. Harvested cells are re-suspended in growth media and are counted using a cell counter.
# T1 sequence (O00311 whole entry): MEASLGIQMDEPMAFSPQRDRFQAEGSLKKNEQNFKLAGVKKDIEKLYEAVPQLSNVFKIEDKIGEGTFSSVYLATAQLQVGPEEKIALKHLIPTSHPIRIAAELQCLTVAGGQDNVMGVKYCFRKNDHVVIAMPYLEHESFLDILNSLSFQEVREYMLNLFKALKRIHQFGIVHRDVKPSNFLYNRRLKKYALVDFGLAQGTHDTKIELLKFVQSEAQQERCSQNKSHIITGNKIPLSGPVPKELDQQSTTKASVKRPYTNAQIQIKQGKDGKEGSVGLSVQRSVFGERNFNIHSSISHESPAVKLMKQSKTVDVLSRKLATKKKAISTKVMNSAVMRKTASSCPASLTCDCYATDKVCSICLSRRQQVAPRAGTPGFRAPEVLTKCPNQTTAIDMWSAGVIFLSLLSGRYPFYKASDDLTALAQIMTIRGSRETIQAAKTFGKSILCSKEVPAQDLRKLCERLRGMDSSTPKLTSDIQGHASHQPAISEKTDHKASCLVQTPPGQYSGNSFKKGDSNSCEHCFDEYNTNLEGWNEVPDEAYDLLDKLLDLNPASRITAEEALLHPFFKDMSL
# T1 sequence (Q9UBU7 whole entry partner): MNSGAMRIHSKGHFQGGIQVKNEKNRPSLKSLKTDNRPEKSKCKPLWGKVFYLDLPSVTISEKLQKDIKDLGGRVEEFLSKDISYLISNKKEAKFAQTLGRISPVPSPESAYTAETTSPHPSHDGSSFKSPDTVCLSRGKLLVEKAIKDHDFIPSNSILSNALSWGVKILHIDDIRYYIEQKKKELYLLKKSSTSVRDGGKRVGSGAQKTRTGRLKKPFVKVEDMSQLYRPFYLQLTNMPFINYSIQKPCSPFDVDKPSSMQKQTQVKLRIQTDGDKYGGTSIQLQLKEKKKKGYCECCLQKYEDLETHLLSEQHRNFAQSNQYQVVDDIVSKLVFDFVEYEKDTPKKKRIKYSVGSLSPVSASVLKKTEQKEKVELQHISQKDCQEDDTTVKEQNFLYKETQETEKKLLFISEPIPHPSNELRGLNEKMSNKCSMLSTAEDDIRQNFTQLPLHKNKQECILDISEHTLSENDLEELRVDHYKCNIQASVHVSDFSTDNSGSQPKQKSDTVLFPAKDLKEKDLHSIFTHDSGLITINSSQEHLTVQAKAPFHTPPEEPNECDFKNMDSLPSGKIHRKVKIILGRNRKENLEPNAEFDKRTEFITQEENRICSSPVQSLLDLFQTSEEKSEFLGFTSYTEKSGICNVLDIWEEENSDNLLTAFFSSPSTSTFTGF
Compound,IC50 [1] [nM],IC50 [2] [nM],TEC70 (plasma concentration for 70% inhibition of pMCM2 normalized to GAPDH) [3] [μM],TED70 (dose for 70% inhibition of pMCM2 normalized to GAPDH) [3] [mg/kg],"IC50 ([1]; Homo sapiens, NCI-H1299, 4 h) [nM]","Number of Cell Lines that Die Rapidly ([4]; Breast, of 17 cell lines)","Number of Cell Lines that Die Rapidly ([4]; Colorectal, of 29 cell lines)","Number of Cell Lines that Die Rapidly ([4]; Leukemia, of 23 cell lines)","Number of Cell Lines that Die Rapidly ([4]; Lung, of 39 cell lines)","Number of Cell Lines that Die Rapidly ([4]; Others, of 6 cell lines)","Number of Cell Lines that Die Rapidly ([4]; Total, of 114 cell lines)","IC50 ([4]; majority of the 114 cancer cell lines tested, read-out: anti-proliferative activity, pharmacologically relevant concentrations) [nM]","cancer cell lines showing particular sensitivity (massive cell death) ([4]; share of the 114 cell lines, within 2 doubling time treatment periods)"
"CC1(c2ncncc2F)NC(=O)c2cc(-c3cn[nH]c3)ccc21 (single isomer, unassigned) [Example 3, 3-(5-Fluoropyrimidin-4-yl)-3-methyl-6-(1H-pyrazol-4-yl)isoindolin-1-one]",290,4.5,1.8,2.6,–,–,–,–,–,–,–,–,–
"CC1(c2ncncc2F)NC(=O)c2cc(-c3cn[nH]c3)ccc21 (single isomer, unassigned; isomer 2) [Example 2, 3-(5-Fluoropyrimidin-4-yl)-3-methyl-6-(1H-pyrazol-4-yl)isoindolin-1-one, Isomer 2]",–,3.7,–,–,261,0,4,5,2,1,12,< 8000,about 10%
